Tests used:
Cannabinoid receptor 1 = Cannabinoid receptor 1 (Rattus norvegicus, UniProt P20272); test: Displacement of [3H]CP-55940 from CB1 receptor in rat brain; format: tissue-based
Cannabinoid receptor 2 = Cannabinoid receptor 2 (Homo sapiens, UniProt P34972); test: Displacement of [3H]CP-55940 from human cloned CB2 receptor
Chain of Cannabinoid receptor 2 (P34972 whole entry): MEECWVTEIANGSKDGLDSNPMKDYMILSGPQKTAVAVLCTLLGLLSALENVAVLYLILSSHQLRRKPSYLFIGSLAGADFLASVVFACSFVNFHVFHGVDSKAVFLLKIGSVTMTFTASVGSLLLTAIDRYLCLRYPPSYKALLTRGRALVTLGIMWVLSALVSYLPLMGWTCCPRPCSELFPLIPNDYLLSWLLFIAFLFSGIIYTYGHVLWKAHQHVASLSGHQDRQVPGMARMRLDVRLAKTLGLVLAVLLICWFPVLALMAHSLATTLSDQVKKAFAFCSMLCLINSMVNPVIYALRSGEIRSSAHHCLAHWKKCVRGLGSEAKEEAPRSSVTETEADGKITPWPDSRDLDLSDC

Chain of Cannabinoid receptor 1 (P20272 whole entry): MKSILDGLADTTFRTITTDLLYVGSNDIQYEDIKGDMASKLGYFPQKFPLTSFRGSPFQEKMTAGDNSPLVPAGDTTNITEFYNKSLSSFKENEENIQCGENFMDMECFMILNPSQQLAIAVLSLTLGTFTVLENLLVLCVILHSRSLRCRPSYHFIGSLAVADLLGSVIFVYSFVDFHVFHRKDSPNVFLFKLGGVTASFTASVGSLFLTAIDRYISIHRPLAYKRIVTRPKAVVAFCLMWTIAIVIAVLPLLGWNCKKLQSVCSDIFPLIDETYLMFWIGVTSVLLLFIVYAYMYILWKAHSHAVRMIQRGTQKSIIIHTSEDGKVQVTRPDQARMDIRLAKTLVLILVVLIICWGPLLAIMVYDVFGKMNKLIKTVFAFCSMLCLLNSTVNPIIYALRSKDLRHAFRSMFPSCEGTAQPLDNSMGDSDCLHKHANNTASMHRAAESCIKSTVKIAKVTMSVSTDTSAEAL

`CCCCn1cc(C(=O)c2cccc3ccccc23)cc1-c1ccccc1` showed a Ki (Cannabinoid receptor 1) of 60 nM and a Ki (Cannabinoid receptor 2) of 15 nM.
In the case of `CCCCCn1cc(C(=O)c2cccc3ccccc23)cc1-c1ccccc1Cl`, the Ki (Cannabinoid receptor 1) is reported as 7.9 nM and the Ki (Cannabinoid receptor 2) is reported as 5.2 nM.
`CCCCCn1cc(C(=O)c2cccc3ccccc23)cc1-c1ccccc1F` gave a Ki (Cannabinoid receptor 1) of 7.7 nM and a Ki (Cannabinoid receptor 2) of 3.3 nM.
Compound `CCCn1cc(C(=O)c2cccc3ccccc23)cc1-c1ccccc1` has a Ki (Cannabinoid receptor 1) of 404 nM and a Ki (Cannabinoid receptor 2) of 104 nM.
`CCCCCn1cc(C(=O)c2cccc3ccccc23)cc1-c1ccccc1OC` gave a Ki (Cannabinoid receptor 1) of 29 nM and a Ki (Cannabinoid receptor 2) of 20 nM.
`CCCCCn1cc(C(=O)c2cccc3ccccc23)cc1-c1cccc([N+](=O)[O-])c1` was tested, and the Ki (Cannabinoid receptor 1) was 100 nM and the Ki (Cannabinoid receptor 2) was 41 nM.
In the case of `CCCCCn1cc(C(=O)c2cccc3ccccc23)cc1-c1cccnc1`, the Ki (Cannabinoid receptor 1) is reported as 191 nM and the Ki (Cannabinoid receptor 2) is reported as 24 nM.
For `CCCCCn1cc(C(=O)c2cccc3ccccc23)cc1-c1ccc(Cl)cc1`, the Ki (Cannabinoid receptor 1) was 276 nM and the Ki (Cannabinoid receptor 2) was 25 nM.
For `CCCCCn1cc(C(=O)c2cccc3ccccc23)cc1-c1cccc(C)c1`, the Ki (Cannabinoid receptor 1) was 67 nM and the Ki (Cannabinoid receptor 2) was 39 nM.
`CCCCCn1cc(C(=O)c2cccc3ccccc23)cc1-c1cccc(C(F)(F)F)c1` was tested, and the Ki (Cannabinoid receptor 1) was 245 nM and the Ki (Cannabinoid receptor 2) was 71 nM.
Work on `CCCCCn1cc(C(=O)c2cccc3ccccc23)cc1-c1ccc(CCCC)cc1` yielded a Ki (Cannabinoid receptor 1) of 42 nM and a Ki (Cannabinoid receptor 2) of 64 nM.
`CCCCCCCn1cc(C(=O)c2cccc3ccccc23)cc1-c1ccccc1` showed a Ki (Cannabinoid receptor 1) of 21 nM and a Ki (Cannabinoid receptor 2) of 62 nM.
Work on `CCCCCn1cc(C(=O)c2cccc3ccccc23)cc1-c1ccccc1C` yielded a Ki (Cannabinoid receptor 1) of 5.6 nM and a Ki (Cannabinoid receptor 2) of 4 nM.
Compound `CCCCCn1cc(C(=O)c2cccc3ccccc23)cc1-c1cccc(F)c1` has a Ki (Cannabinoid receptor 1) of 16 nM and a Ki (Cannabinoid receptor 2) of 9.1 nM.
With `CCCCCn1cc(C(=O)c2cccc3ccccc23)cc1-c1ccccc1CC` the Ki (Cannabinoid receptor 1) was 17 nM and the Ki (Cannabinoid receptor 2) was 3.4 nM.
Compound `CCCCCn1cc(C(=O)c2cccc3ccccc23)cc1-c1ccc(OC)cc1` has a Ki (Cannabinoid receptor 1) of 285 nM and a Ki (Cannabinoid receptor 2) of 41 nM.
Compound `CCCCCn1cc(C(=O)c2cccc3ccccc23)cc1-c1ccc2ccccc2c1` has a Ki (Cannabinoid receptor 1) of 333 nM and a Ki (Cannabinoid receptor 2) of 169 nM.
`CCCCCn1cc(C(=O)c2cccc3ccccc23)cc1-c1ccc(F)cc1` was tested, and the Ki (Cannabinoid receptor 1) was 41 nM and the Ki (Cannabinoid receptor 2) was 33 nM.
`CCCCCn1cc(C(=O)c2cccc3ccccc23)cc1-c1cccc(Cl)c1` showed a Ki (Cannabinoid receptor 1) of 70 nM and a Ki (Cannabinoid receptor 2) of 16 nM.
`CCCCCCn1cc(C(=O)c2cccc3ccccc23)cc1-c1ccccc1` was tested, and the Ki (Cannabinoid receptor 1) was 11 nM and the Ki (Cannabinoid receptor 2) was 7.1 nM.
With `CCCCCn1cc(C(=O)c2cccc3ccccc23)cc1-c1ccc(C(F)(F)F)cc1` the Ki (Cannabinoid receptor 1) was 218 nM and the Ki (Cannabinoid receptor 2) was 53 nM.
`CCCCCn1cc(C(=O)c2cccc3ccccc23)cc1-c1ccccc1CCCC` was tested, and the Ki (Cannabinoid receptor 1) was 60 nM and the Ki (Cannabinoid receptor 2) was 69 nM.
`CCCCCn1cc(C(=O)c2cccc3ccccc23)cc1-c1cccc2ccccc12` showed a Ki (Cannabinoid receptor 1) of 41 nM and a Ki (Cannabinoid receptor 2) of 49 nM.
With `CCCCCn1cc(C(=O)c2cccc3ccccc23)cc1-c1ccccc1C(F)(F)F` the Ki (Cannabinoid receptor 1) was 77 nM and the Ki (Cannabinoid receptor 2) was 8.2 nM.
In the case of `CCCCCn1cc(C(=O)c2cccc3ccccc23)cc1-c1ccc(C)cc1`, the Ki (Cannabinoid receptor 1) is reported as 130 nM and the Ki (Cannabinoid receptor 2) is reported as 18 nM.
Work on `CCCCCn1cc(C(=O)c2cccc3ccccc23)cc1-c1ccccc1` yielded a Ki (Cannabinoid receptor 1) of 14 nM and a Ki (Cannabinoid receptor 2) of 6.4 nM.
With `CCCCCn1cc(C(=O)c2cccc3ccccc23)cc1-c1cccc(OC)c1` the Ki (Cannabinoid receptor 1) was 53 nM and the Ki (Cannabinoid receptor 2) was 23 nM.
`CCCCCn1cc(C(=O)c2cccc3ccccc23)cc1-c1ccc(CC)cc1` showed a Ki (Cannabinoid receptor 1) of 34 nM and a Ki (Cannabinoid receptor 2) of 29 nM.

Reference: ChEMBL document CHEMBL1137285, “1-Alkyl-2-aryl-4-(1-naphthoyl)pyrroles: new high affinity ligands for the cannabinoid CB1 and CB2 receptors” (Bioorg Med Chem Lett, 2006)
